One test concerns the target T1, mouse PPARα (Mus musculus, UniProt P23204).
T1 construct: amino acids 167-468 for hs and m; expressed in transfected cells; host or cells: CV-1
T1 sequence (P23204 167-468): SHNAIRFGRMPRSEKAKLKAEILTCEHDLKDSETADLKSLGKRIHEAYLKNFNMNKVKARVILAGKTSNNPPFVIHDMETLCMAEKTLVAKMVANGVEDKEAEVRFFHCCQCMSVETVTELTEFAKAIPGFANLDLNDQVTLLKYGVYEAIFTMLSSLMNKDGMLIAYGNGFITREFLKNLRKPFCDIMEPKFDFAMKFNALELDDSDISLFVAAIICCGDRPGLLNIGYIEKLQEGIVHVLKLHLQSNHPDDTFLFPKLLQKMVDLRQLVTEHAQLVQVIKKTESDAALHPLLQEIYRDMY
The experiment in a line: GAL4-PPAR chimera transactivation assay in CV-1 cells at 10% or 0.1% serum (Example 4). Particulars: read-out: GAL4-chimera (mouse) EC50 (μM) hPPARα. In kind it is cell-based.

Test [1] is described as follows: Body weight follow-up during treatment in rats fed a high fat/medium fructose diet (WD). In kind it is in vivo, rat. As to conditions: oral once daily. From the text: The first set of rats was undergoing an OGTT after 3 weeks of treatment (half rats/group of the clamp arm) and the second set was also undergoing an OGTT after 3 weeks of treatment (half rats/group of clamp arm) and the Histology study (3 rats/group). […] Homogenous mild obese and insulin resistant rats were allocated into the different treatment groups and western diet was continued until the end of the experiment. Given that, the 2 series started with a gap of one week Dosage regimen: Rats were treated once daily via the oral route, in the morning. The duration of the treatment was between 5 and 5.5 weeks. […], 10 mg/Kg (n=12) […] The second set of rats was weighted at 8:30 on days 17 and 21, at 1:45 pm on day 24 and at 11:10 am on day 28.

The next test deals with T2, mouse PPARδ (Mus musculus, UniProt P35396).
T2 construct: amino acids 139-440 for m; expressed in transfected cells; host or cells: CV-1
T2 sequence (P35396 139-440): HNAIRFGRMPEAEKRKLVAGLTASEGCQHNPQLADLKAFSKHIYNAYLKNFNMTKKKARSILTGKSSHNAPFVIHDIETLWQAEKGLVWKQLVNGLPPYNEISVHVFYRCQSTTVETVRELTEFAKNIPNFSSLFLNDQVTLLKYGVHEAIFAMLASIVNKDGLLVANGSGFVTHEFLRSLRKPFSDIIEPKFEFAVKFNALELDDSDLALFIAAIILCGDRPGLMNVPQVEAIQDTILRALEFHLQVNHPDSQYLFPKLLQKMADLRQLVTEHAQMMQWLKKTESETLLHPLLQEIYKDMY
The experiment in a line: GAL4-PPAR chimera transactivation assay in CV-1 cells at 10% or 0.1% serum (Example 4). As to conditions: read-out: GAL4-chimera (mouse) EC50 (μM) hPPARδ. Type of test: cell-based.

Test [2] is described as follows: Plasma biochemistry after 17 days of treatment in WD fed rats (glycemia, insulin, HOMA-IR, adiponectin, FFA, TG). In kind it is in vivo, rat.
The subject of test [3] is Tibialis-anterior muscle fibers. The experiment in a line: Histochemical staining for succinate dehydrogenase (SDH) of tibialis-anterior muscle, quantification of oxidative fibers. In kind it is in vivo, rat. Particulars: for Biopsis #1 Non-oxydative fibers (pixels) / Biopsis #1 oxydative fibers (% from total pixels) / Biopsis #1 oxydative fibers (pixels) / Biopsis #2 Non-oxydative fibers (pixels) / Biopsis #2 oxydative fibers (% from total pixels) / Biopsis #2 oxydative fibers (pixels): rat tibialis-anterior, individual animals. As to the method: The muscle fibers on a set of animals that were treated with the compound 1.1 at the doses of 3 or 10 mg/kg once a day for 3 weeks are analyzed. Tibialis-anterior from 3 animals per group were used for both morpho-histology analysis and molecular analysis of specific markers of mitochondrial activities. The histology analysis was preformed on cryosection followed by a histochemical staining for succinate dehydrogenase (SDH) (Luquet S. et al., FASEB J, 2003. 17(15): p. 2299-301). Two biopsies of each muscle samples were generated and analyzed.
The quantification was performed by using Adobe Photoshop software (Lehr et al. Histochem Cytochem, 1997. 45(11): p. 1559-65, J Histochem Cytochem, 1999. 47(1): p. 119-26), and was based on pictures (in TIFF format) obtained from different slides of muscle (Tibialis-Anterior).
For each picture identical areas of about 57000 pixels at similar magnification were selected and the surface occupied by the stained fibers was measured (FIG. 1). The results are expressed as the percentage of the area of highly-stained and moderately-stain fibers from the total area selected. The analysis is performed in a blinded fashion.
Statistical analysis (Prism-Graphpad) was performed using unpaired T-test with: * corresponding to p<0.05 and ** to p<0.01.

Test [4] can be described thus: Triglycerides content in the liver after 5 weeks of treatment in WD fed rats (enzymatic-colorimetric method). Particulars: pioglitazone 10, GW501516 10, compound I.1 at any used dose. Type of test: in vivo, rat. As to the method: At the end of the clamp procedure (9.5 hours fasting), perirenal, retroperitoneal, epididymal and inguinal fat pads and liver weights were recorded. Blood was collected from cardiac puncture and plasmas were stored at −80° C. for further assays if needed (depending on the radioactive state of samples). Liver triglyceride content was assessed (enzymatic-colorimetric method) as well as liver and adipose tissue TNF-α content (ELISA method).

The mark [5] stands for this setting: 3 mg/kg once a day for 3 weeks, listed as COMP.I.1, 3 mg/kg.
Where [6] appears, read: 10 mg/kg once a day for 3 weeks.
[7] abbreviates: 10 mg/kg once a day for 3 weeks, listed as COMP.I.1, 10 mg/kg.

“And” between values parts separate entries of the source, which are not always exact repeats. Equal entries are not always repeated. “Also recorded” adds a separate entry of the source. Where two headings read alike, the source gives them in different places. Bounds are passed on as bounds.

The results in this text go back to US20110092517A1, “Use of PPAR Delta Ligands for the Treatment or Prevention of Inflammation or Energy Metabolism/Production Related Diseases” (Cerenis Therapeutics S.A. & Nippon Chemiphar Co., Ltd., priority 2009, published 2011).

For the molecule `Cc1cc(C(=O)CCc2sc(-c3ccc(C(F)(F)F)cc3)nc2C(C)C)ccc1OCC(=O)O` [compound I.1, 4-[3-[4-Isopropyl-2-[4-(trifluoromethyl)phenyl]-5-thiazolyl]propionyl]-2-methylphenoxyacetic acid], the 50% effective concentration (EC50) at mouse PPARα (0.1% serum) is above 10 µM; on mouse PPARα (10% serum), above 10 µM; at mouse PPARδ (0.1% serum), 0.065 ± 0.001 µM; at mouse PPARδ (10% serum) it was 0.327 ± 0.07 µM. Further, the “Body weight / body weight gain during treatment” value in test [1] (compound I.1 3 mg/kg (alone or +metformin 50 mg/kg)) is given as “did not affect body weight gain”; in test [1] (pioglitazone 10, metformin 50, GW501516 10, compound I.1 10 mg/kg (alone or +metformin 50 mg/kg)) it was “decreased thereafter body weight gain, until a significant effect after 4 weeks of treatment”. In addition, in test [2] (4 h fasted, pioglitazone 10, metformin 50, GW501516 10, compound I.1 10 mg/kg), the “Decrease of HOMA-IR” value was ~25% and 28%. In addition, in test [2] (pioglitazone 10, metformin 50, GW501516 10, compound I.1 3 and 10 mg/kg), the Plasma adiponectin levels result is “did not prevent a decrease”. Also, the “Increase of the number of oxidative fiber in tibialis muscle” value in test [3] (WD fed rats, SDH histology, dose not specified) was “about 50%”. Further, the “Biopsis #1 Non-oxydative fibers (pixels)” value in test [3] (setting [5]) was 15343 pixels and 16157 pixels and 27185 pixels; in test [3] (setting [7]) it was 18992 pixels and 27170 pixels and 16958 pixels. Moreover, the “Biopsis #1 oxydative fibers (% from total pixels)” value in test [3] (setting [5]) was 73.56 % from total pixels and 72.16 % from total pixels and 51.41 % from total pixels; in test [3] (setting [7]) it was 68.84 % from total pixels and 52.66 % from total pixels and 70.78 % from total pixels. Further, the “Biopsis #1 oxydative fibers (pixels)” value in test [3] (setting [5]) was 42685 pixels and 41871 pixels and 28767 pixels; in test [3] (setting [7]) it was 35030 pixels and 30218 pixels and 41070 pixels. The “Biopsis #2 Non-oxydative fibers (pixels)” value in test [3] (setting [5]) was 16208 pixels and 1109 pixels and 16402 pixels; in test [3] (setting [6]), 9243 pixels. Besides, the “Biopsis #2 oxydative fibers (% from total pixels)” value in test [3] (setting [5]) is 72.07 % from total pixels and 81.01 % from total pixels and 69.92 % from total pixels; in test [3] (setting [6]), 83.06 % from total pixels. For the same molecule, the “Biopsis #2 oxydative fibers (pixels)” value was 41820 pixels and 47009 pixels and 38128 pixels in test [3] (setting [5]); 45326 pixels in test [3] (setting [6]). The “Triglycerides content in the liver” value in test [4] was “did not affect; also recorded: did not significantly decrease”.
